In ChEMBL document CHEMBL2413072, “Synthesis and in vitro anticancer studies of novel C-2 arylidene congeners of lantadenes” (2013):

Key:
Format in all cases: functional
MDA-MB-468 [1] = assay: Growth inhibition of human MDA-MB-468 cells assessed as cell growth at 10^-4 M by sulforhodamine B assay; details: read-out: Activity
NCI-H23 [2] = assay: Growth inhibition of human NCI-H23 cells assessed as cell growth at 10^-7 M by sulforhodamine B assay; details: read-out: Activity
[3] = Growth inhibition of human HCC2998 cells assessed as cell growth at 10 uM by sulforhodamine B assay; details: HCC 2998, read-out: Activity
NCI-H522 [4] = assay: Growth inhibition of human NCI-H522 cells assessed as growth inhibition at 10 uM by sulforhodamine B assay; details: read-out: GI
A549 [5] = assay: Growth inhibition of human A549/ATCC cells assessed as cell growth at 10^-6 M by sulforhodamine B assay; details: read-out: Activity
HT-29 = assay: Growth inhibition of human HT-29 cells assessed as cell growth at 10 uM by sulforhodamine B assay; details: read-out: Activity
SR = assay: Growth inhibition of human SR cells by sulforhodamine B assay
NCI-H23 [6] = assay: Growth inhibition of human NCI-H23 cells assessed as cell growth at 10 uM by sulforhodamine B assay; details: read-out: Activity
BT-549 = assay: Growth inhibition of human BT549 cells assessed as cell growth at 10^-4 M by sulforhodamine B assay; details: read-out: Activity
SF-268 = assay: Growth inhibition of human SF268 cells assessed as cell growth at 10 uM by sulforhodamine B assay; details: read-out: Activity
SN12C = assay: Growth inhibition of human SN12C cells assessed as cell growth at 10 uM by sulforhodamine B assay; details: read-out: Activity
HCT-15 = assay: Growth inhibition of human HCT15 cells by sulforhodamine B assay
MOLT-4 = assay: Growth inhibition of human MOLT4 cells assessed as cell growth at 10^-7 M by sulforhodamine B assay; details: read-out: Activity
Malme-3M = assay: Growth inhibition of human MALME-3M cells assessed as growth inhibition at 10 uM by sulforhodamine B assay; details: read-out: GI
UACC-62 [7] = assay: Growth inhibition of human UACC62 cells assessed as cell growth at 10 uM by sulforhodamine B assay; details: read-out: Activity
SK-MEL-5 = assay: Growth inhibition of human SK-MEL-5 cells assessed as cell growth at 10^-4 M by sulforhodamine B assay; details: read-out: Activity
TK-10 = assay: Growth inhibition of human TK10 cells assessed as cell growth at 10 uM by sulforhodamine B assay; details: read-out: Activity
CCRF-CEM [8] = assay: Growth inhibition of human CCRF-CEM cells assessed as cell growth at 10^-4 M by sulforhodamine B assay; details: read-out: Activity
MDA-MB-231 [9] = assay: Growth inhibition of human MDA-MB-231 cells by sulforhodamine B assay
MDA-MB-231 [10] = assay: Growth inhibition of human MDA-MB-231 cells assessed as cell growth at 10^-8 M by sulforhodamine B assay; details: read-out: Activity
OVCAR-8 = assay: Growth inhibition of human OVCAR8 cells assessed as cell growth at 10 uM by sulforhodamine B assay; details: read-out: Activity
CCRF-CEM [11] = assay: Growth inhibition of human CCRF-CEM cells assessed as growth inhibition at 10 uM by sulforhodamine B assay; details: read-out: GI
K562 = assay: Growth inhibition of human K562 cells assessed as cell growth at 10 uM by sulforhodamine B assay; details: read-out: Activity
SF-539 = assay: Growth inhibition of human SF539 cells assessed as cell growth at 10 uM by sulforhodamine B assay; details: read-out: Activity
OVCAR-3 [12] = assay: Growth inhibition of human OVCAR3 cells assessed as cell growth at 10 uM by sulforhodamine B assay; details: read-out: Activity
NCI-H522 [13] = assay: Growth inhibition of human NCI-H522 cells assessed as cell growth at 10^-4 M by sulforhodamine B assay; details: read-out: Activity
A549 [14] = assay: Growth inhibition of human A549/ATCC cells assessed as cell growth at 10^-8 M by sulforhodamine B assay; details: read-out: Activity
MCF7 = assay: Growth inhibition of human MCF7 cells assessed as cell growth at 10 uM by sulforhodamine B assay; details: read-out: Activity
[15] = Growth inhibition of human EKVX cells assessed as cell growth at 10 uM by sulforhodamine B assay; details: read-out: Activity
OVCAR-3 [16] = assay: Growth inhibition of human OVCAR3 cells assessed as growth inhibition at 10 uM by sulforhodamine B assay; details: read-out: GI
[17] = Growth inhibition of human HCC2998 cells assessed as cell growth at 10^-6 M by sulforhodamine B assay; details: HCC 2998, read-out: Activity
HCT-116 = assay: Growth inhibition of human HCT116 cells assessed as cell growth at 10^-6 M by sulforhodamine B assay; details: read-out: Activity
NCI-H23 [18] = assay: Growth inhibition of human NCI-H23 cells assessed as growth inhibition at 10 uM by sulforhodamine B assay; details: read-out: GI
T47D = assay: Growth inhibition of human T47D cells by sulforhodamine B assay
MDA-MB-468 [19] = assay: Growth inhibition of human MDA-MB-468 cells by sulforhodamine B assay
UACC-62 [20] = assay: Growth inhibition of human UACC62 cells assessed as growth inhibition at 10 uM by sulforhodamine B assay; details: read-out: GI
[21] = Growth inhibition of human NCI-ADR-RES cells assessed as cell growth at 10 uM by sulforhodamine B assay; details: read-out: Activity
NCI-H522 [22] = assay: Growth inhibition of human NCI-H522 cells assessed as cell growth at 10 uM by sulforhodamine B assay; details: read-out: Activity
LOX IMVI = assay: Growth inhibition of human LOXIMVI cells by sulforhodamine B assay
NCI-H23 [23] = assay: Growth inhibition of human NCI-H23 cells assessed as cell growth at 10^-4 M by sulforhodamine B assay; details: read-out: Activity
UO-31 = assay: Growth inhibition of human UO31 cells assessed as cell growth at 10^-7 M by sulforhodamine B assay; details: read-out: Activity
RPMI-8226 = assay: Growth inhibition of human RPMI8226 cells assessed as growth inhibition at 10 uM by sulforhodamine B assay; details: read-out: GI
[24] = read-out: LC50 (the source's name)
[25] = read-out: pLC50 (the source's name) (converted)

CC(C)=CC(=O)O[C@@H]1CC(C)(C)C[C@H]2C3=CC[C@@H]4[C@@]5(C)CC[C@H](O)C(C)(C)[C@@H]5CC[C@@]4(C)[C@]3(C)CC[C@@]12C(=O)O [Reduced Lantadene B]
growth at 100 µM (MDA-MB-468 [1]): -77% | growth at 0.1 µM (NCI-H23 [2]): 92% | growth at 10 µM [3]: 62% | inhibition of growth at 10 µM (NCI-H522 [4]): 32.4% | growth at 1 µM (A549 [5]): 34% | growth at 10 µM (HT-29): 49.3% | GI50 (SR; read-out: GI50): 5.04 µM | CC50 (SR; [24]): > 100 µM | TGI (SR; read-out: TGI): 35.4 µM | GI50 (SR; read-out: pGI50 (converted)): 5.01 µM | CC50 (SR; [25]): > 100 µM | TGI (SR; read-out: pTGI (converted)): 35.5 µM | growth at 10 µM (NCI-H23 [6]): 63.4% | growth at 100 µM (BT-549): -65% | growth at 10 µM (SF-268): 92.2% | growth at 10 µM (SN12C): 50.9% | GI50 (HCT-15; read-out: GI50): 1.56 µM | LC50 (50% lethal concentration) (HCT-15; read-out: LC50): > 100 µM | TGI (HCT-15; read-out: TGI): 19.2 µM | GI50 (HCT-15; read-out: pGI50 (converted)): 1.55 µM | LC50 (50% lethal concentration) (HCT-15; read-out: pLC50 (converted)): > 100 µM | TGI (HCT-15; read-out: pTGI (converted)): 19.1 µM | growth at 0.1 µM (MOLT-4): 94% | inhibition of growth at 10 µM (Malme-3M): < 10% | growth at 10 µM (UACC-62 [7]): 67.2% | growth at 100 µM (SK-MEL-5): -64% | growth at 10 µM (TK-10): 79.9% | growth at 100 µM (CCRF-CEM [8]): -16% | GI50 (MDA-MB-231 [9]; read-out: GI50): 4.56 µM | CC50 (MDA-MB-231 [9]; [24]): 54.7 µM | TGI (MDA-MB-231 [9]; read-out: TGI): 19.4 µM | GI50 (MDA-MB-231 [9]; read-out: pGI50 (converted)): 4.57 µM | CC50 (MDA-MB-231 [9]; [25]): 55 µM | TGI (MDA-MB-231 [9]; read-out: pTGI (converted)): 19.5 µM | growth at 0.01 µM (MDA-MB-231 [10]): 111% | growth at 10 µM (OVCAR-8): 59.9% | inhibition of growth at 10 µM (CCRF-CEM [11]): 72.6% | growth at 10 µM (K562): 45.2% | growth at 10 µM (SF-539): 54.7% | growth at 10 µM (OVCAR-3 [12]): 73.9% | growth at 100 µM (NCI-H522 [13]): -64% | growth at 0.01 µM (A549 [14]): 91% | growth at 10 µM (MCF7): 62.7% | growth at 10 µM [15]: 47.7% | inhibition of growth at 10 µM (OVCAR-3 [16]): 26.1% | growth at 1 µM [17]: 96% | growth at 1 µM (HCT-116): 72% | inhibition of growth at 10 µM (NCI-H23 [18]): 36.6% | GI50 (T47D; read-out: GI50): 16.7 µM | CC50 (T47D; [24]): > 100 µM | TGI (T47D; read-out: TGI): 63.4 µM | GI50 (T47D; read-out: pGI50 (converted)): 16.6 µM | CC50 (T47D; [25]): > 100 µM | TGI (T47D; read-out: pTGI (converted)): 63.1 µM | GI50 (MDA-MB-468 [19]; read-out: GI50): 4.17 µM | CC50 (MDA-MB-468 [19]; [24]): 57.1 µM | TGI (MDA-MB-468 [19]; read-out: TGI): 20.2 µM | GI50 (MDA-MB-468 [19]; read-out: pGI50 (converted)): 4.17 µM | CC50 (MDA-MB-468 [19]; [25]): 57.5 µM | TGI (MDA-MB-468 [19]; read-out: pTGI (converted)): 20 µM | inhibition of growth at 10 µM (UACC-62 [20]): 32.8% | growth at 10 µM [21]: 54.5% | growth at 10 µM (NCI-H522 [22]): 67.7% | GI50 (LOX IMVI; read-out: GI50): 9.09 µM | CC50 (LOX IMVI; [24]): > 100 µM | TGI (LOX IMVI; read-out: TGI): 38.2 µM | GI50 (LOX IMVI; read-out: pGI50 (converted)): 9.12 µM | CC50 (LOX IMVI; [25]): > 100 µM | TGI (LOX IMVI; read-out: pTGI (converted)): 38 µM | growth at 100 µM (NCI-H23 [23]): -58% | growth at 0.1 µM (UO-31): 95% | inhibition of growth at 10 µM (RPMI-8226): 76.3%
